Test results reported in patent publication EP4722219A1 (Gan & Lee Pharmaceuticals Co., Ltd., priority 2023, dated 2024).

Tests used:
[1] = test system: LNCaP cells; experiment: Inhibition of LNCaP cell proliferation (WST-8); format: cell-based; conditions: LNCaP FGC cells, 96 hours
In short: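 Cells were seeded and cultured overnight at 37 °C, 5% CO2, then exposed for 96 h to compound at 9 concentrations, 5-fold serial dilution from 10 µM final. Viability was read by WST-8 absorbance at 450 nm.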

[2] = molecular target: T1, AR protein (Homo sapiens, UniProt P10275); experiment: AR protein degradation in VCaP cells (Western blot); format: cell-based; conditions: 8h
T1 construct: host or cells: VCaP
T1 sequence (P10275 1-920): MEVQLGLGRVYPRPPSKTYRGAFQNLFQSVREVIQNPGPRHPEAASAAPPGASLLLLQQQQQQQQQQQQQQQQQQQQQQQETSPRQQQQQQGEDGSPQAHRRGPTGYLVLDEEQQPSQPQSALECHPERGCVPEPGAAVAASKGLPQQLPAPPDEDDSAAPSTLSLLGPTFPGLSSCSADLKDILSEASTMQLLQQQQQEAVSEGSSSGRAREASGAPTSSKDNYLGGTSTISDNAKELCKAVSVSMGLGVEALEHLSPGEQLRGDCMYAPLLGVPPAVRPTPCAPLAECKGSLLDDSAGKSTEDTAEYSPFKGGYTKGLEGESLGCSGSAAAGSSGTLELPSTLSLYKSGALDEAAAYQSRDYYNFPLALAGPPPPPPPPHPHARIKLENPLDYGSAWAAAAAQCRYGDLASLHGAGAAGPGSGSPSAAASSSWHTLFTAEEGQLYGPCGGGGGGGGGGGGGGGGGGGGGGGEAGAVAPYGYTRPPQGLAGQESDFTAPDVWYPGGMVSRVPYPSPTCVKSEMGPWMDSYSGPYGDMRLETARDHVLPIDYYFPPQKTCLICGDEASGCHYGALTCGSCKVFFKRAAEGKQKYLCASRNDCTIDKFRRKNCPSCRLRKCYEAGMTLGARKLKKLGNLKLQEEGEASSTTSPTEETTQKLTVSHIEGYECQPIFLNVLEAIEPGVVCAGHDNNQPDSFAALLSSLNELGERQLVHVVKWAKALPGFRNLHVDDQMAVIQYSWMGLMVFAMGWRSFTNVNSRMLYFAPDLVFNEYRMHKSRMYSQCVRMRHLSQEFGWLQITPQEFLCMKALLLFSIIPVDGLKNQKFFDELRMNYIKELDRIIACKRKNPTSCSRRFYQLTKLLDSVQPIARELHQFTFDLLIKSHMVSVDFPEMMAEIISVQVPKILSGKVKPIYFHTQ
In short: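 AR-positive VCaP human prostate cancer cells grown in DMEM with 10% FBS were plated in six-well plates at 3×10^5 cells/well and incubated overnight. Compounds were then added at 1 µL/well alongside a solvent control and incubated for 8h. Lysates in RIPA buffer with protease inhibitor were quantified by BCA and run by SDS-PAGE. AR was detected by Western blot, and degradation was calculated from band grayscale normalized to GAPDH.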

IC50 ([1]; Homo sapiens) [µM]	Degradation rate of AR protein in VCaP cells ([2]; 0.5 nM) [%]	Degradation rate of AR protein in VCaP cells ([2]; 5 nM) [%]	Compound	AR protein degradation rate at fixed concentration (%) at 0.0005 µM ([2]; 0.5 nM) [%]	AR protein degradation rate at fixed concentration (%) at 0.005 µM ([2]; 5 nM) [%]	IC50 [1] [µM]
2.23	25	49	COc1cc(O[C@H]2C(C)(C)[C@H](NC(=O)c3ccc(N4CCC5(CC4)CC(N4CCC6(CCc7cc(C(=O)N[C@H]8CCC(=O)NC8=O)c(F)cc7O6)CC4)C5)cc3)C2(C)C)ccc1C#N [A-P-37, 1'-(7-(4-(((1R,3R)-3-(4-cyano-3-methoxyphenoxy)-2,2,4,4-tetramethylcyclobutyl)carbamoyl)phenyl)-7-azaspiro[3.5]nonan-2-yl)-N-((S)-2,6-dioxopiperidin-3-yl)-7-fluorospiro[chroman-2,4'-piperidin]-6-carboxamide]	–	–	–
0.38	-20	21	COc1cc(O[C@H]2C(C)(C)[C@H](NC(=O)c3ccc(N4CCC(CN5CCN6c7ccc(N[C@H]8CCC(=O)NC8=O)cc7OC[C@@H]6C5)CC4)cc3)C2(C)C)ccc1C#N [A-P-100]	–	–	–
1.49	-21	-5	COc1cc(O[C@H]2C(C)(C)[C@H](NC(=O)c3ccc(N4CCC(C)(CN5CCC6(CCc7cc(F)c(C(=O)N[C@H]8CCC(=O)NC8=O)cc7O6)CC5)CC4)cc3)C2(C)C)ccc1C#N [A-P-38, 1-(1-(4-((1R,3R)-3-((4-cyano-3-methoxyphenoxy)-2,2,4,4-tetramethylcyclobutyl)carbamoyl)phenyl)-4-methylpiperidin-4-methyl)-N-((S)-2,6-dioxopiperidin-3-yl)-6-fluorospiro[chroman-2,4'-piperidin]-7-carboxamide]	–	–	–
0.18	84	87	CC1(C)[C@H](NC(=O)c2ccc(N3CCC(CN4CCC5(CCc6cc(C(=O)N[C@H]7CCC(=O)NC7=O)c(F)cc6O5)CC4)CC3)nc2)C(C)(C)[C@H]1Oc1ccc(C#N)c(Cl)c1 [A-P-50, 1'-((1-(5-(((1R,3R)-3-(3-chloro-4-cyanophenoxy)-2,2,4,4-tetramethylcyclobutyl)carbamoyl)pyridin-2-yl)piperidin-4-yl)methyl)-N-((S)-2,6-dioxopiperidin-3-yl)-7-fluorospiro[chroman-2,4'-piperidin]-6-carboxamide]	–	–	–
1.58	56	84	COc1cc(O[C@H]2C(C)(C)[C@H](NC(=O)c3ccc(N4CCC(CN5CCC6(CCc7cc(C(=O)N[C@H]8CCC(=O)NC8=O)c(F)cc7O6)CC5)CC4)nc3)C2(C)C)ccc1C#N [A-P-33, 1'-((1-(5-(((1R,3R)-3-(4-cyano-3-methoxyphenoxy)-2,2,4,4-tetramethylcyclobutyl)carbamoyl)pyridin-2-yl)piperidin-4-yl)methyl)-N-((S)-2,6-dioxopiperidin-3-yl)-7-fluorospiro[chroman-2,4'-piperidin]-6-carboxamide]	–	–	–
2.89	–	–	COc1cc(O[C@H]2C(C)(C)[C@H](NC(=O)c3ccc(N4CCC(N5CC6(CCC7(CC6)COc6c7ccc7c6CN(C6CCC(=O)NC6=O)C7=O)C5)CC4)cc3)C2(C)C)ccc1C#N (stereo partly drawn) [A-P-2]	50	83	–
6.56	-8	10	COc1cc(O[C@H]2C(C)(C)[C@H](NC(=O)c3ccc(N4CCC(CN5CCC6(CCc7cc(F)c(C(=O)N[C@H]8CCC(=O)NC8=O)cc7O6)CC5)(OC)CC4)cc3)C2(C)C)ccc1C#N [A-P-40]	–	–	–
0.58	–	–	COc1cc(O[C@H]2C(C)(C)[C@H](NC(=O)c3ccc(N4CCC(C)(CN5CCC6(CCc7cc(C(=O)N[C@H]8CCC(=O)NC8=O)c(F)cc7O6)CC5)CC4)cc3)C2(C)C)ccc1C#N [A-P-31, 1'-((1-((4-((1r,3r)-3-(4-cyano-3-methoxyphenoxy)-2,2,4,4-tetramethylcyclobutyl)carbamoyl)phenyl)-4-methylpiperidin-4-yl)methyl)-N-((S)-2,6-dioxopiperidin-3-yl)-7-fluorospiro[2,4'-piperidin]-6-carboxamide]	-13	41	–
7.22	20	70	COc1cc(O[C@H]2C(C)(C)[C@H](NC(=O)c3ccc(N4CCC(CN5CCN6c7ccc(C(=O)N[C@H]8CCC(=O)NC8=O)cc7OC[C@@H]6C5)CC4)cc3)C2(C)C)ccc1C#N [A-P-67]	–	–	–

Compound	IC50 ([1]; Homo sapiens) [µM]	Degradation rate of AR protein in VCaP cells ([2]; 0.5 nM) [%]	Degradation rate of AR protein in VCaP cells ([2]; 5 nM) [%]	AR protein degradation rate at fixed concentration (%) at 0.0005 µM ([2]; 0.5 nM) [%]	AR protein degradation rate at fixed concentration (%) at 0.005 µM ([2]; 5 nM) [%]	IC50 [1] [µM]
C[C@H]1CC2(CCN(c3ccc(N4CCC(CN5CCC6(CC5)COc5ccc7c(c56)n(C)c(=O)n7C5CCC(=O)NC5=O)CC4)cc3)CC2)CN1c1ccc(C#N)c(Cl)c1 (stereo partly drawn) [A-P-26, 2-chloro-4-((3 S)-8-(4-(4-((3-((2,6-dioxopiperidin-3-yl))-1-methyl-2-oxo-2,3-dihydro-1H,7H-spiro[benzofuro[4,5-d]imidazole-8,4'-piperidin]-1'-yl)methyl)piperidin-1-yl)phenyl)-3-methyl-2,8-diazaspiro[4.5]decan-2-yl)benzonitrile]	4.91	–	–	-43	18	–
Cn1c(=O)n(C2CCC(=O)NC2=O)c2cc3c(cc21)C1(CCN(CC2CCN(c4ccc(C(=O)N[C@H]5CC[C@H](Oc6ccc(C#N)c(Cl)c6)CC5)nn4)CC2)CC1)CO3 (stereo partly drawn) [A-P-10]	137	–	–	75	78	–
COc1cc(O[C@H]2C(C)(C)[C@H](NC(=O)c3ccc(N4CCC(CN5CCC6(CC5)COc5c6ccc(C(=O)N[C@H]6CCC(=O)NC6=O)c5F)CC4)cc3)C2(C)C)ccc1C#N [A-P-83]	0.71	36	66	–	–	–
COc1cc(O[C@H]2CC[C@H](NC(=O)c3ccc(N4CCC(CN5CCC6(CC5)COc5c6ccc6c5n(C)c(=O)n6C5CCC(=O)NC5=O)CC4)nn3)CC2)ccc1C#N (stereo partly drawn) [A-P-22]	47.6	–	–	84	69	–
(R)-3-((1-(4-(((S)-2-(3-chloro-4-cyanophenyl)-3-methyl-2,8-diazaspiro[4.5]decan-8-yl)phenyl)piperidin-4-yl)methyl)-N-(((S)-2,6-dioxopiperidin-3-yl)-1,2,3,4,4a,5-hexahydrobenzo[b]pyrazi no[1,2-d][1,4]oxazine-8-carboxamide [A-P-58]	–	12	37	–	–	0.51
COc1cc(O[C@H]2C(C)(C)[C@H](NC(=O)c3ccc(N4CCC5(CC4)CC(N4CCC6(CC4)COc4cc7c(cc46)n(C)c(=O)n7C4CCC(=O)NC4=O)C5)nn3)C2(C)C)ccc1C#N (relative stereo) [A-P-14, N-((1r,3r)-3-(4-cyano-3-methoxyphenoxy)-2,2,4,4-tetramethylcyclobutyl)-6-(2-(3-(2,6-dioxopiperidin-3-yl)-1-methyl-2-oxo-2,3-dihydro-1H,6H-spiro[benzofuro[5,6-d]imidazole-7,4'-piperidin]-1'-yl)-7-azaspiro[3.5]nonan-7-yl)pyridazine-3-carboxamide]	1.1	63	82	–	–	–
COc1cc(O[C@H]2C(C)(C)[C@H](NC(=O)c3ccc(N4CCC(C)(CN5CCC6(CC5)COc5c6ccc(C(=O)N[C@H]6CCC(=O)NC6=O)c5F)CC4)cc3)C2(C)C)ccc1C#N [A-P-85, 1'-((1-(4-(((1r,3r)-3-(4-cyano-3-methoxyphenoxy)-2,2,4,4-tetramethylcyclobutyl)carbamoyl)phenyl)-4-methylpiperidin-4-yl)methyl)-N-((S)-2,6-dioxopiperidin-3-yl)-7-fluoro-2H-spiro[benzofuran-3,4'-piperidin]-6-carboxamide]	0.29	18	34	–	–	–
Cn1c(=O)n(C2CCC(=O)NC2=O)c2ccc3c(c21)OCC31CCN(C2CCN(c3ccc(C(=O)N[C@H]4CC[C@H](Oc5ccc(C#N)c(Cl)c5)CC4)nn3)CC2)CC1 (stereo partly drawn) [A-P-23]	22.4	–	–	85	74	–
